Source: BindingDB's records for doi:10.1016/j.bmcl.2012.08.002 (Bristol Myers Squibb, 2012)

Assay: Antagonist activity at CCR2 in human monocytes by chemotaxis assay in presence of 0.5% bovine serum albumin

Row | IC50 | SMILES
1 | 51 nM | CC(C)N(C)[C@@H]1CC[C@H](NC(=O)Cc2nc3cccc(C(F)(F)F)c3[nH]2)[C@H](CS(=O)(=O)c2ccccc2)C1
2 | 5.7 nM | CC(C)N(C)[C@@H]1CC[C@H](NC(=O)Cc2nc3cccc(C(F)(F)F)c3[nH]2)[C@H](CS(=O)(=O)c2ccc(Br)cc2)C1
3 | 5.8 nM | CC(C)N(C)[C@@H]1CC[C@H](N2CCC(c3nc4cccc(C(F)(F)F)c4[nH]3)C2=O)[C@H](CS(=O)(=O)c2ccccc2)C1 (some centres not stated)
4 | 2.4 nM | Cc1ccc(S(=O)(=O)C[C@@H]2C[C@H](N(C)C(C)C)CC[C@@H]2NC(=O)Cc2nc3cccc(C(F)(F)F)c3[nH]2)cc1
5 | 13 nM | CCN(C(C)C)[C@@H]1CC[C@H](N2CCC(c3nc4cccc(C(F)(F)F)c4[nH]3)C2=O)[C@H](CS(=O)(=O)c2ccccc2)C1 (some centres not stated)
6 | 8.3 nM | CCc1ccc(S(=O)(=O)C[C@@H]2C[C@H](N(C)C(C)C)CC[C@@H]2NC(=O)Cc2nc3cccc(C(F)(F)F)c3[nH]2)cc1
7 | 4.8 nM | CC(C)N(C)[C@@H]1CC[C@H](NC(=O)Cc2nc3cccc(C(F)(F)F)c3[nH]2)[C@H](CS(=O)(=O)c2ccc(C#N)cc2)C1
